Series [1] has as its system B16 cell. Nature of the series: Inhibition of B16 cell spreading on a plate coated with fibronectin. The conditions noted are these: the conjugate value is based on octapeptide, read-out: concentration for 50% inhibition of cell spreading. How it is done: The biological activity of the conjugate formed in Example XV was determined in an assay which measures inhibition of B16 cell spreading on a plate coated with fibronectin.

A short description of series [2]: Circulatory half-life of radioiodinated peptide or conjugate after tail vein injection. It counts as in vivo, C57B1/6 mice. The conditions noted are these: i.v. tail vein. How it is done:
The conjugate from Example XIII was passed over a disposable Sephadex G25 column (PD10 from Pharmacia, Inc.) to separate free from polymer-bound peptide. Confirmation of the purity of the conjugate was obtained by HPLC. About 45 µg of conjugate (based on peptide) were radiolabeled with 125-iodine using the well known chloramine-T procedure. Free 125-iodine was separated from radiolabeled conjugate using a PD10 column. Of the original 30 µCi of Na¹²⁵I used for the iodination, more than 23 µCi were incorporated into the conjugate.
Portions of the radiolabeled YRGDS-Prepolymer A conjugate from Example XIV were injected into the tail veins of C57B1/6 mice. As a control, YRGDS free peptide was radioiodinated by the procedure described in Example XIV and also injected. At various times blood was withdrawn from the animals and the amount of radioiodine remaining in the circulation determined using a gamma counter. A biphasic clearance curve (α:β) was obtained for both species. […] Thus by coupling the peptide to this polymer its clearance rate from the circulation is markedly extended.

Ends that are not written are not given here. Peptide text beside a SMILES is read from it.

Take “GRGDSPAC-Prepolymer A conjugate: peptide gly-arg-gly-asp-ser-pro-ala-cys (SEQ. ID No. 3) conjugated with Prepolymer A (also: conjugated with Prepolymer A, site not given here)”: the IC50 in series [1] was determined as 340 µM.

In series [2] (first phase of biphasic clearance), `N=C(N)NCCC[C@H](NC(=O)[C@@H](N)Cc1ccc(O)cc1)C(=O)NCC(=O)N[C@@H](CC(=O)O)C(=O)N[C@@H](CO)C(=O)O` [YRGDS, tyr-arg-gly-asp-ser] (H-YRGDS-OH) registered a t½α of 30 s. Further, the “label cleared in initial phase” value in series [2] (in one minute, 125-iodine label) was “about 75%”.
